From US20150050734A1, “Carbon Nanotubes And Methods Of Use” (DUKE UNIVERSITY, priority 2012, published 2015)
“Also recorded” adds a separate entry of the source.

Key:
primary cortical neurons = test: Clomeleon-based ratiometric chloride imaging; assay type: cell-based, rat; details: for effect on neuronal [Cl−]i: KN93 1 μM
Description: The preparation of primary cortical neurons was adapted from a previous protocol. […] Briefly, cortices were microdissected from embryonic rats (E18) or mice (E16.5).
The tissue was dissociated using papain, followed by mechanical dissociation. Cytosine arabinoside (2.5 μM) was added to cultures to inhibit the proliferation of non-neuronal cells. Cell suspension was plated at a density of 10^6 cells mL^−1 onto tissue-culture dishes. 12 mm-diameter matrix-covered glass coverslips were contained in tissue culture dishes, typically n=3.

KCC2 = KCC2 immunocytochemistry / densitometry in cultured neurons; assay type: cell-based, rat; details: KN93 1 μM
Description: Confocal fluorescence imaging was conducted after immunolabeling for β3-tubulin (mouse monoclonal antibody; 1:200, Iowa hybridoma bank, Iowa City, United States), and KCC2 (rabbit polyclonal antibody; Abcam; 1:200). Id.. Fluorescently labeled sections were visualized in a Zeiss LSM710 (Carl Zeiss AG, Oberkochen, Germany) confocal imaging suite with lasers tuned to the […] spectra of the secondary fluorescent antibodies (coupled to Alexa-488 and Alexa-595 dyes), as described previously. Li, J. et al. (2011) Environ Health Perspect 119:784-793.
Morphometry for confocal and light-microscopy acquired images was conducted as previously described. Yeo, M. et al. (2009) J. Neurosci 29:14652-14662.

Compound | effect on acceleration of the chloride shift and upregulation of KCC2 (primary cortical neurons; KN62 1 μM, fwCNT-cultured primary neurons) | effect on neuronal [Cl−]i (primary cortical neurons; Au-cultured neurons) | effect on neuronal [Cl−]i (primary cortical neurons; fwCNT-cultured neurons) | effect on KCC2 expression (KCC2; Au-cultured neurons) | effect on KCC2 upregulation (KCC2; fwCNT-cultured neurons)
CN([C@@H](Cc1ccc(OS(=O)(=O)c2cccc3cnccc23)cc1)C(=O)N1CCN(c2ccccc2)CC1)S(=O)(=O)c1cccc2cnccc12 [KN62] | Dependence of acceleration of the chloride shift and upregulation of KCC2 | – | – | – | –
COc1ccc(S(=O)(=O)N(CCO)c2ccccc2CN(C)C/C=C/c2ccc(Cl)cc2)cc1 [KN93] | – | also not on Au-cultured neurons | specific and powerful effect | modest reduction; also recorded: relative lack effect | strict dependence
